Experimental data from US4782069A, “1,4-Dihydropiridines and their use as antithrombotic drugs” (Alter, S.A., priority 1986, dated 1988).

How the values were obtained:
[1] = test system: platelet thromboembolism in mice; test: "In vivo" thrombosis model in the mouse (collagen + epinephrine i.v.); parameters: species or system CD-1 Charles River male mice; conditions: suspension in 0.5% carboxymethylcellulose, one to four hours after administration, i.v. 15 ug collagen and 1.8 ug epinephrine
Method: (B) "IN VIVO" THROMBOSIS MODEL (DiMinno, G., Silver, M. J.; J. Pharmacol. Exptl. Ther. 225:57 (1983)).
This is a suitable method for the screening of antithrombotic agents having a primary activity on platelet thormboembolism.
CD-1 Charles River male mice weighing 30 g were used. They received and i.v. injection of 15 ug collagen and 1.8 ug epinephrine in 100 ul of isotonic solution. About the 90% of the animals died or were paralysed for more than 15 minutes.
Drugs were intraperitoneally administered as a suspension in 0.5% carboxymethylcellulose and the protecting effect thereof against thrombosis was measured one to four hours after the administration.

[2] = test system: human platelets (ADP-induced aggregation); test: "In vitro" aggregation on human platelets (PRP), ADP-induced; format: cell-based; conditions: Platelet, 0.25 h, compound 10^-4 M, 37° C., 15 minutes, 2.5 uM ADP
Method: (§1) (Born, G.V.R., Nature 194:927 (1962)).
(§2) Citrated human blood was used, from which platelet-rich plasma (PRP) was prepared. 450 ul PRP aliquots were incubated at 37° C. with the assayed compounds at a single concentration of 10^-4 M for 15 minutes. Aggregating agents (2 ug/ml collagen and 2.5 uM ADP) were added in a 50 ul volume and the aggregation was measured as optical density decrease in the platelet suspension.

[3] = test system: human platelets (collagen-induced aggregation); test: "In vitro" aggregation on human platelets (PRP), collagen-induced; format: cell-based; conditions: Platelet, 0.25 h, compound 10^-4 M, 37° C., 15 minutes, 2 ug/ml collagen
Method: as §1, §2

[4] = test system: human platelets (ATP secretion); test: Releasing reaction (ATP secretion from activated platelets), simultaneous to collagen aggregation; format: cell-based; conditions: Platelet, 0.25 h, human PRP, compound 10^-4 M, 37° C., 15 minutes, 2 ug/ml collagen
Method: as §2

SMILES | Protection % ([1]; 30 mg/kg intraperitoneal) [%] | Protection % ([1]; 60 mg/kg intraperitoneal) [%] | inhibition at 100 µM [2] [%] | inhibition at 100 µM [3] [%] | inhibition at 100 µM [4] [%]
OCCN(CCO)c1nc(N2CCCCC2)c2nc(N(CCO)CCO)nc(N3CCCCC3)c2n1 [DIPYRIDAMOL, reference compound] | 30 | 30 | – | – | –
CCOC(=O)C1=C(C)NC(C)=C(C(=O)OCCN2C(=O)c3ccccc3S2(=O)=O)C1C (centres unmarked) [Example 1, 2-{N-(1,2-benzisothiazolyl-3(2H)one-1,1-dioxide)} ethyl 2,6-dimethyl-5-ethoxycarbonyl-4-methyl-1,4-dihydropyridine-3-carboxylate] | 50 | 70 | 12 | 84 | 80
COC(=O)C1=C(C)NC(C)=C(C(=O)OCCN2C(=O)c3ccccc3S2(=O)=O)C1C (centres unmarked) [Example 2, 2-{N-(1,2-benzisothiazolyl-3(2H)one-1,1-dioxide)} ethyl 2,6-dimethyl-4-methyl-5-methoxycarbonyl-1,4-dihydropyridine-3-carboxylate] | 0 | 42 | 20 | 48 | 43
CC1=C(C(=O)OCCNC(=O)c2ccccc2O)C(C)C(C(=O)OCCN2C(=O)c3ccccc3S2(=O)=O)=C(C)N1 (centres unmarked) [Example 3] | 62 | 62 | 15 | 24 | 18
COC(=O)C1=C(C)NC(C)=C(C(=O)OCN2C(=O)c3ccccc3S2(=O)=O)C1C (centres unmarked) [Example 4, {N-(1,2-benzisothiazolyl-3(2H)one-1,1-dioxide)} methyl 2,6-dimethyl-4-methyl-5-methoxycarbonyl-1,4-dihydropyridine-3-carboxylate] | 20 | 20 | 5 | 14 | 19
CCOC(=O)C1=C(C)NC(C)=C(C(=O)OCN2C(=O)c3ccccc3S2(=O)=O)C1C (centres unmarked) [Example 5, {N-(1,2-benzisothiazolyl-3(2H)one-1,1-dioxide)} methyl 2,6-dimethyl-5-ethoxycarbonyl-4-methyl-1,4-dihydropyridine-3-carboxylate] | 30 | 50 | 20 | 55 | 51
CCCCC1C(C(=O)OC)=C(C)NC(C)=C1C(=O)OCCN1C(=O)c2ccccc2S1(=O)=O (centres unmarked) [Example 6, 2-{N-(1,2-benzisothiazolyl-3(2H)one-1,1-dioxide)} ethyl 4-n-butyl-2,6-dimethyl-5-methoxycarbonyl-1,4-dihydropyridine-3-carboxylate] | 12 | 34 | 8 | 15 | 29
